{
  "source": "patent US20060122101A1",
  "about": "“Drug for preventing, regulating or treating adhesion” (priority 2003, published 2006)",
  "key": {"[1]": {"details": "cited from earlier work"}, "[2]": {"target": "T1, chymase (Homo sapiens, UniProt P23946)", "T1 construct": "the chymase activity in the blood vessel tissue of the living body; from tissue; host or cells: blood vessel tissue of the living body", "T1 sequence (P23946 22-247)": "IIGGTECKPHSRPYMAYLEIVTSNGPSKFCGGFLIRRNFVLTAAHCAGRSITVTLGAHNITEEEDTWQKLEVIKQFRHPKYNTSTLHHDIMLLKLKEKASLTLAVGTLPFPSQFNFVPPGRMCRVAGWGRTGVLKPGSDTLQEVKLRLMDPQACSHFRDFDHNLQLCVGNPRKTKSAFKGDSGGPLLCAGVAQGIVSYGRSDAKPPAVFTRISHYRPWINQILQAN", "experiment": "Chymase activity in blood vessel tissue of the living body after use during operation", "type": "in vivo", "details": "10 μM during the operation; for 4 weeks", "description": "The medicament of the present invention allows at least one protease inhibitor to be administered in a substantially sufficient amount to permit epithelialization in the site of adhesion formation. […] The effective administration amount of chymase inhibitor (Suc-Val-Pro-L-Phe^P(OPh)2) can be selected in the range of 0.0001 to 100 mg per 1 kg of adult body weight, per one day. For example, it can be administered intravenously by an amount selected in the range from 0.0001 to 100 mg, preferably from 0.01 to 1 mg, and orally by an amount selected in the range from 0.1 to 100 mg, preferably from 0.1 to 10 mg. Furthermore, it can be intravenously applied by an amount in the range from 0.0001 to 1000 mg, preferably from 0.1 to 100 mg."}, "[3]": {"target": "human leukocyte elastase (Homo sapiens, UniProt P08246)", "sequence (P08246 30-267)": "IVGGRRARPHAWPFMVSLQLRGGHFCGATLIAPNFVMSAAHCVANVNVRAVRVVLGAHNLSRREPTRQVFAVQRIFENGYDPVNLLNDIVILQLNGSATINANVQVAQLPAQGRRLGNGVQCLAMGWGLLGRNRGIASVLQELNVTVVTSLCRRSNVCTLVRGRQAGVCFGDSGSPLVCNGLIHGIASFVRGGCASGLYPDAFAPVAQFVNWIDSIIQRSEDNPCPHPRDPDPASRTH", "details": "cited from earlier work"}, "[4]": {"tested_on": "chymotrypsin and chymotrypsin-like enzymes", "details": "cited from earlier work"}, "[5]": {"tested_on": "Cardiac muscle adhesion models", "experiment": "Prevention of adhesion by oral administration in hamster cardiac muscle adhesion model", "type": "in vivo, Syrian hamsters", "details": "10 mg/kg orally once a day", "description": "Syrian hamsters (SLC Co., Ltd.), 6 weeks of age (weighing 85-90 g), were subject to abdominal middle incision to scrape their hearts. Cardiac muscle adhesion models were prepared. Suc-Val-Pro-Phe^P(OPh)2 (10 mg/kg) (eight cases) or placebo (eight cases) was forcibly orally administered using a canal once a day from the 3rd day before the model preparation to the 14th day after the model preparation. The adhesion levels at the 14th day after the model preparation were compared to study. Adhesion scores are as follows. Student-t test was used to test a significant difference in adhesion core.\nAdhesion level 0: A heart is easily taken out, and the heart exists independently from the circumference, as is similar to a normal heart.\nAdhesion level 1: A heart is observed to adhere to the circumferential tissue at one site by a thin film, but the adhesion site can be simply freed to release the heart.\nAdhesion level 2: A heart is observed to adhere to the circumferential tissue at a few sites, but the adhesion sites can be freed by a traction force to release the heart.\nAdhesion level 3: A heart is firmly adhered, but is distinguishable from, to the circumferential tissue at several sites, and it is hard to release the heart without a strong traction force.\nAdhesion level 4: Excessive cell growth and fibrosis occur around a heart, and the heart is observed to adhere to the circumferential tissue. The heart is so firmly adhered to the circumferential tissue that the heart is difficult to release even by a peeling traction force."}, "[6]": {"details": "3rd day before to 14th day after model preparation, eight cases"}},
  "data": [
    {"compound": "CC(C)C(NC(=O)CCC(=O)O)C(=O)N1CCCC1C(=O)NC(Cc1ccccc1)P(=O)(Oc1ccccc1)Oc1ccccc1", "note": "[Suc-Val-Pro-L-Phe^P(OPh)2]", "values": [
      {"measurement": "half-life in human blood plasma", "setting": "[1]", "result": "about 20 hours"},
      {"measurement": "suppression of chymase activity in the blood vessel tissue", "setting": "[2]", "result": "suppress significantly"}
    ]},
    {"compound": "Boc-Val-Pro-Val^P(OPh)2", "values": [
      {"measurement": "inhibitor potency with human leukocyte elastase", "setting": "[3]", "result": "relatively potent inhibitors"}
    ]},
    {"compound": "Meo-Suc-Ala-Ala-Pro-Val^P(OPh)2", "values": [
      {"measurement": "inhibitor potency with human leukocyte elastase", "setting": "[3]", "result": "relatively potent inhibitors"}
    ]},
    {"compound": "Suc-Val-Pro-Phe^P(OPh)2", "values": [
      {"measurement": "half-life in human blood plasma", "setting": "[1]", "result": "about 20 hours"},
      {"measurement": "inhibitor potency for chymotrypsin and chymotrypsin-like enzymes", "setting": "[4]", "result": "relatively potent inhibitor"},
      {"measurement": "cases ranked as adhesion level 0", "setting": "[5]; [6]", "result": 75, "unit": "%"},
      {"measurement": "cases ranked as adhesion level 2", "setting": "[5]; [6]", "result": 12.5, "unit": "%"},
      {"measurement": "cases ranked as adhesion level 4", "setting": "[5]; [6]", "result": 12.5, "unit": "%"},
      {"measurement": "adhesion level versus placebo group", "setting": "[5]; 14th day, Student-t test", "result": "fell down significantly in adhesion level"}
    ]}
  ]
}
